Experimental data reported in patent US20230110757A1, “METHODS FOR TREATING ANIMALS, FEED, DRINKING WATER, WASH WATER, PROCESSING EQUIPMENT, PACKAGING MATERIALS, AND FOOD PRODUCTS” (EVOQ NANO, INC., priority 2021, published 2023).

Test system: E. coli, KwikStik, ATCC #51813
Assay: Antibacterial efficacy test, RLU (ATP) counts post treatment
Assay type: cell-based
Description: An antibacterial efficacy test was carried out comparing an “Attostat” nanoparticle formulation (8 nm size) against silver nitrate and against the National Institute of Standards and Technology (NIST) Standard Nanocomposix 10 nm silver nanoparticles. The NIST nanoparticles are formed by a chemical reduction process that utilizes citrate as reducing and capping agent.
Relative Light Unit (RLU) counts were recorded at 12 hours and 24 hours post treatment. RLU measurements were carried out using a Hygiena SystemSURE Plus V.2 SN067503 RLU meter with Hygenia AquaSnap TOTAL ATP Water Test Cat #U143 Lot #153019. Culturing media was Hardy Diagnostics Buffered Peptone Water Lot #118272. Samples were prepared with the nanoparticle treatments and then diluted with the media to provide the tested concentrations. The test organism (Microbiologics, E. coli, KwikStik, ATCC #51813, Ref #0791 K, Lot #791-1-6) was incubated in fresh Buffered Peptone Water growth media for 24 hours prior to exposure to the nanoparticle treatments.

For O=[N+]([O-])[O-].[Ag+] [AgNO3 Silver Nitrate, silver nitrate], the “RLU Counts at 12 Hours Post Exposure to Nanoparticle Treatment” value (from here on “RLU Counts at 12 Hours Post Exposure”) (0.25 ppm (mg/L)) was 80 RLU, the “RLU as percentage of control at 12 Hours Post Treatment” value (0.25 ppm (mg/L)) was 1.2% and the “RLU Counts at 24 Hours Post Exposure to Nanoparticle Treatment” value (“RLU Counts at 24 Hours Post Exposure” for short) (0.25 ppm (mg/L)) was 25 RLU. The “RLU as percentage of control at 24 Hours Post Treatment” value (0.25 ppm (mg/L)) was 0.34%, the “RLU Counts at 12 Hours Post Exposure” value (0.5 ppm (mg/L)) was 75 RLU and the “RLU as percentage of control at 12 Hours Post Treatment” value (0.5 ppm (mg/L)) was 1.1%. For the same molecule, the “RLU Counts at 24 Hours Post Exposure” value (0.5 ppm (mg/L)) was 46 RLU, the “RLU as percentage of control at 24 Hours Post Treatment” value (0.5 ppm (mg/L)) was 0.62% and the “RLU Counts at 12 Hours Post Exposure” value (1.0 ppm (mg/L)) was 84 RLU. The “RLU as percentage of control at 12 Hours Post Treatment” value (1.0 ppm (mg/L)) was 1.3%, the “RLU Counts at 24 Hours Post Exposure” value (1.0 ppm (mg/L)) was 30 RLU and the “RLU as percentage of control at 24 Hours Post Treatment” value (1.0 ppm (mg/L)) was 0.41%.
